The NIST ThermoML archive (doi:10.1021/je060271a)

Details: 303.16 K, Liquid, Vibrating tube method

CCCC(=O)OCC(COC(=O)CCC)(COC(=O)CCC)COC(=O)CCC [pentaerythritol tetrabutyrate]
Details | mass density [kg/m3]
11210 kPa | 1049.3
11243 kPa | 1049.3
11283 kPa | 1049.4
11317 kPa | 1049.5
11359 kPa | 1049.5
11394 kPa | 1049.4
11436 kPa | 1049.6
11472 kPa | 1049.6
11511 kPa | 1049.6
11541 kPa | 1049.5
11577 kPa | 1049.6
11607 kPa | 1049.6
11641 kPa | 1049.7
11666 kPa | 1049.6
11688 kPa | 1049.6
11714 kPa | 1049.7
11736 kPa | 1049.8
11763 kPa | 1049.7
11789 kPa | 1049.7
11811 kPa | 1049.8
11838 kPa | 1049.7
11865 kPa | 1049.9
11888 kPa | 1049.8
11910 kPa | 1049.8
11936 kPa | 1049.9
11964 kPa | 1049.8
11987 kPa | 1049.8
12015 kPa | 1049.9
12038 kPa | 1049.9
12068 kPa | 1049.8
12093 kPa | 1049.9
12117 kPa | 1050
12145 kPa | 1050
12173 kPa | 1050
12197 kPa | 1050
12221 kPa | 1050
12250 kPa | 1050.1
12278 kPa | 1050
12302 kPa | 1050.2
12331 kPa | 1050.1
12356 kPa | 1050.1
12385 kPa | 1050.2
12416 kPa | 1050.1
12441 kPa | 1050.1
12466 kPa | 1050.1
12496 kPa | 1050.2
12521 kPa | 1050.1
12551 kPa | 1050.3
12576 kPa | 1050.2
12607 kPa | 1050.3
12637 kPa | 1050.3
12663 kPa | 1050.3
12694 kPa | 1050.2
12720 kPa | 1050.2
12751 kPa | 1050.3
12782 kPa | 1050.3
12808 kPa | 1050.4
12840 kPa | 1050.4
12867 kPa | 1050.4
12899 kPa | 1050.5
12926 kPa | 1050.4
12959 kPa | 1050.5
12986 kPa | 1050.6
13019 kPa | 1050.6
13051 kPa | 1050.6
13078 kPa | 1050.5
13111 kPa | 1050.6
13173 kPa | 1050.6
13201 kPa | 1050.6
13235 kPa | 1050.5
13264 kPa | 1050.6
13297 kPa | 1050.5
13332 kPa | 1050.7
13360 kPa | 1050.6
13395 kPa | 1050.8
13424 kPa | 1050.7
13459 kPa | 1050.9
13493 kPa | 1050.9
13522 kPa | 1050.8
13558 kPa | 1050.8
13589 kPa | 1050.9
13625 kPa | 1050.9
13656 kPa | 1050.9
13693 kPa | 1050.9
13723 kPa | 1051
13761 kPa | 1051
13791 kPa | 1050.9
13829 kPa | 1050.9
13859 kPa | 1051.1
13897 kPa | 1051
13934 kPa | 1051
13966 kPa | 1050.9
14003 kPa | 1051.1
14035 kPa | 1051.2
14072 kPa | 1051.1
14111 kPa | 1051.1
14144 kPa | 1051.1
14184 kPa | 1051.2
14217 kPa | 1051.3
14257 kPa | 1051.4
14291 kPa | 1051.4
14332 kPa | 1051.2
14367 kPa | 1051.3
14409 kPa | 1051.4
14443 kPa | 1051.4
14483 kPa | 1051.4
14513 kPa | 1051.5
14547 kPa | 1051.5
14581 kPa | 1051.5
14609 kPa | 1051.5
14643 kPa | 1051.4
14672 kPa | 1051.4
14706 kPa | 1051.5
14740 kPa | 1051.5
14770 kPa | 1051.6
14804 kPa | 1051.6
14839 kPa | 1051.7
14868 kPa | 1051.5
14907 kPa | 1051.6
14937 kPa | 1051.7
14972 kPa | 1051.7
15002 kPa | 1051.8
15038 kPa | 1051.9
15069 kPa | 1051.7
15106 kPa | 1051.8
15136 kPa | 1051.8
15174 kPa | 1051.7
15210 kPa | 1051.9
15242 kPa | 1051.9
15279 kPa | 1051.8
15312 kPa | 1051.9
15345 kPa | 1051.9
15384 kPa | 1052.1
15415 kPa | 1052
15453 kPa | 1052
15492 kPa | 1052
15525 kPa | 1052.1
15564 kPa | 1052.2
15597 kPa | 1052.1
15637 kPa | 1052.1
15671 kPa | 1052.1
15710 kPa | 1052.1
15743 kPa | 1052.1
15783 kPa | 1052.3
15823 kPa | 1052.2
15857 kPa | 1052.2
15897 kPa | 1052.3
